Target: T1, KCNQ2/3 channels (Homo sapiens, UniProt O43525+O43526)
T1 construct: expressed in transfected cells
Assay: Fluorescence assay using a voltage sensitive dye (fluorimetry)
Assay type: cell-based
Details: CHO-K1 cells expressing KCNQ2/3; for Emax: CHO-K1, plateau effect relative to saturated retigabine (50 μM) = 100%, negative values = antagonistic, read-out: Fluorimetry % efficacy (retigabine = 100%); for EC50: IC50 where % efficacy is negative, read-out: Fluorimetry EC50/IC50

T1 sequence (O43526 whole entry): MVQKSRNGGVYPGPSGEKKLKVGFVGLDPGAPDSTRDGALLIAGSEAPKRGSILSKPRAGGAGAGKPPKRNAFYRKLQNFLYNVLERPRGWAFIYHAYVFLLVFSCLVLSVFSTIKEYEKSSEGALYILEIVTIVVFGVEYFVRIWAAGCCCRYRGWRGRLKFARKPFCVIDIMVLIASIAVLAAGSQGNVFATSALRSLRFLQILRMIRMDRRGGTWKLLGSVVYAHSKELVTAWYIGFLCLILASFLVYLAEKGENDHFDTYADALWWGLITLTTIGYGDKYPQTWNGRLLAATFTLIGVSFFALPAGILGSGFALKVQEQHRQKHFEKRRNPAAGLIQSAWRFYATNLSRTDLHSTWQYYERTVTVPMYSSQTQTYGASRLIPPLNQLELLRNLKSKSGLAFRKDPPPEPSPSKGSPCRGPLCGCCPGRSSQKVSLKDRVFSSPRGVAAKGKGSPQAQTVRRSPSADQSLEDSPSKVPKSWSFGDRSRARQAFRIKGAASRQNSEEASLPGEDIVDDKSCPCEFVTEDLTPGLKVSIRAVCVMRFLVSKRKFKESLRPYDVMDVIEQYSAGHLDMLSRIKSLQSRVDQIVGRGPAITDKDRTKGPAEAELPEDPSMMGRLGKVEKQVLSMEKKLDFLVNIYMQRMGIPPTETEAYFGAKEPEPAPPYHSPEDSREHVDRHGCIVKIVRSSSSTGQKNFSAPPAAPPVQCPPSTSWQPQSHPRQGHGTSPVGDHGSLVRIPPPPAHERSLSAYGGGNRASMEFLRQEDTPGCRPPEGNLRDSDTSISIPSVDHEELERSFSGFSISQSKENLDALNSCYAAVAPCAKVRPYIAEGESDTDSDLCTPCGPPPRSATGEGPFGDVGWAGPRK
T1 sequence (O43525 whole entry): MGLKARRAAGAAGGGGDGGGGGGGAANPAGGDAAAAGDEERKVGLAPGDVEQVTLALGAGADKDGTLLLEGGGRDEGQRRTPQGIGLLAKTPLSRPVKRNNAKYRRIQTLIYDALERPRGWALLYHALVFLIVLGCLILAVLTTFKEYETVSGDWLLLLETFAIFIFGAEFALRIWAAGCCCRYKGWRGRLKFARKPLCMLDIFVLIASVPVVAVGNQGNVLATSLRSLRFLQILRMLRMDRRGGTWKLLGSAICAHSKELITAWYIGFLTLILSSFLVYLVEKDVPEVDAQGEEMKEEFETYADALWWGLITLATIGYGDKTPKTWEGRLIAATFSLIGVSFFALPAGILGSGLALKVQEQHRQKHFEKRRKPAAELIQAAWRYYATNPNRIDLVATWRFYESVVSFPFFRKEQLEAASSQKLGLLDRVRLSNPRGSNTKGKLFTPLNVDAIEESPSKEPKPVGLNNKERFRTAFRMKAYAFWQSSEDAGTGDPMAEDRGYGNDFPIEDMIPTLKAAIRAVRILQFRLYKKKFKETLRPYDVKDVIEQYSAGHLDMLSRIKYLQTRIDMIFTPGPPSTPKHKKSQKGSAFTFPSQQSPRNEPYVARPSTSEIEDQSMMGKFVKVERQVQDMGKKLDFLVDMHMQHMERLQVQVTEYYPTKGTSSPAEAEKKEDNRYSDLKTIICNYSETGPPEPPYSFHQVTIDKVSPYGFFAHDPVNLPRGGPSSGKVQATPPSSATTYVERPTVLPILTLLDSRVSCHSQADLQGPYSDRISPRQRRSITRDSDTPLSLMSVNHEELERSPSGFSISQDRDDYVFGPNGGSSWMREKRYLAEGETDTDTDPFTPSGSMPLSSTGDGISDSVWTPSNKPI

| Emax | EC50 | SMILES |
| --- | --- | --- |
| 22% | – | CCSc1nc(N(C)c2ccncc2)cc(C)c1C(=O)NCc1cccc(F)c1 [Example 200, 2-Ethylsulfanyl-N-[(3-fluorophenyl)-methyl]-4-methyl-6-(methyl-pyridin-4-yl-amino)-pyridine-3-carboxylic acid amide] |
| 127% | 135 nM | CCSc1nc(N2CCOCC2)cc(C)c1C(=O)NCc1ccc(F)c(C)c1 [Example 201, 2-Ethylsulfanyl-N-[(4-fluoro-3-methyl-phenyl)-methyl]-4-methyl-6-morpholin-4-yl-pyridine-3-carboxylic acid amide] |
| 129% | 5990 nM | CCSc1nc(N2CCOCC2)cc(C)c1C(=O)NCC(O)Cc1ccccc1 (stereo not drawn) [Example 202, 2-Ethylsulfanyl-N-(2-hydroxy-3-phenyl-propyl)-4-methyl-6-morpholin-4-yl-pyridine-3-carboxylic acid amide] |
| 220% | 219 nM | CCN(C)c1nc(N2CCOCC2)cc(C)c1C(=O)NCc1ccc(F)c(F)c1 [Example 203, N-[(3,4-Difluoro-phenyl)-methyl]-2-(ethyl-methyl-amino)-4-methyl-6-morpholin-4-yl-pyridine-3-carboxylic acid amide] |
| 239% | 141 nM | CCN(C)c1nc(N2CCOCC2)cc(C)c1C(=O)NCc1cc(F)cc(F)c1 [Example 204, N-[(3,5-Difluoro-phenyl)-methyl]-2-(ethyl-methyl-amino)-4-methyl-6-morpholin-4-yl-pyridine-3-carboxylic acid amide] |
| 205% | 898 nM | Cc1cc(N2CCOCC2)nc(N(C)C)c1C(=O)NCc1ccc(F)cc1 [Example 205, 2-Dimethylamino-N-[(4-fluorophenyl)-methyl]-4-methyl-6-morpholin-4-yl-pyridine-3-carboxylic acid amide] |
| 207% | 402 nM | Cc1cc(N2CCOCC2)nc(N(C)C)c1C(=O)NCc1ccc(F)c(F)c1 [Example 206, N-[(3,4-Difluoro-phenyl)-methyl]-2-dimethylamino-4-methyl-6-morpholin-4-yl-pyridine-3-carboxylic acid amide] |
| 183% | 69 nM | CCSc1nc(N2CCOC[C@H]2C)cc(C)c1C(=O)NCc1ccc(Cl)cc1 [Example 207, N-[(4-Chlorophenyl)-methyl]-2-ethylsulfanyl-4-methyl-6-[(3R)-3-methyl-morpholin-4-yl]-pyridine-3-carboxylic acid amide] |
| 61% | 281 nM | CCSc1nc(N2CCOCC2)cc(C)c1C(=O)NCc1cc(C)cc(C)c1 [Example 208, N-[(3,5-Dimethyl-phenyl)-methyl]-2-ethylsulfanyl-4-methyl-6-morpholin-4-yl-pyridine-3-carboxylic acid amide] |
| 192% | 234 nM | CCCCCCCNC(=O)c1c(C)cc(N2CCOCC2)nc1SCC [Example 209, 2-Ethylsulfanyl-N-heptyl-4-methyl-6-morpholin-4-yl-pyridine-3-carboxylic acid amide] |
| 223% | 187 nM | CCSc1nc(N(C)C)cc(C)c1C(=O)NCCCC(C)(C)C [Example 210, 6-Dimethylamino-N-(4,4-dimethyl-pentyl)-2-ethylsulfanyl-4-methyl-pyridine-3-carboxylic acid amide] |
| 225% | 143 nM | CCSc1nc(N(C)CCOC)cc(C)c1C(=O)NCCCC(C)(C)C [Example 211, N-(4,4-Dimethyl-pentyl)-2-ethylsulfanyl-6-(2-methoxy-ethyl-methyl-amino)-4-methyl-pyridine-3-carboxylic acid amide] |
| 200% | 152 nM | CCSc1nc(N(C)CCCOC)cc(C)c1C(=O)NCCCC(C)(C)C [Example 212, N-(4,4-Dimethyl-pentyl)-2-ethylsulfanyl-6-(3-methoxy-propyl-methyl-amino)-4-methyl-pyridine-3-carboxylic acid amide] |
| 131% | 49 nM | CCCC1COCCN1c1cc(C)c(C(=O)NCc2cccc(F)c2)c(SCC)n1 (stereo not drawn) [Example 213, 2-Ethylsulfanyl-N-[(3-fluorophenyl)-methyl]-4-methyl-6-(3-propyl-morpholin-4-yl)-pyridine-3-carboxylic acid amide] |
| 194% | 224 nM | COc1nc(N2CCOC[C@H]2C)cc(C)c1C(=O)NCc1cccc(F)c1 [Example 214, N-[(3-Fluorophenyl)-methyl]-2-methoxy-4-methyl-6-[(3R)-3-methyl-morpholin-4-yl]-pyridine-3-carboxylic acid amide] |
| 191% | 147 nM | COc1nc(N2CCOC[C@H]2C)cc(C)c1C(=O)NCc1ccc(Cl)cc1 [Example 215, N-[(4-Chlorophenyl)-methyl]-2-methoxy-4-methyl-6-[(3R)-3-methyl-morpholin-4-yl]-pyridine-3-carboxylic acid amide] |

| Emax | EC50 | SMILES |
| --- | --- | --- |
| 181% | 69 nM | CCC(C)c1nc(N2CCOCC2)cc(C)c1C(=O)NCc1cccc(F)c1 (stereo not drawn) [Example 216, N-[(3-Fluorophenyl)-methyl]-4-methyl-2-(1-methyl-propyl)-6-morpholin-4-yl-pyridine-3-carboxylic acid amide] |
| 181% | 407 nM | CCCCCCNC(=O)c1c(C)cc(N2CCOCC2)nc1SCC [Example 217, 2-Ethylsulfanyl-N-hexyl-4-methyl-6-morpholin-4-yl-pyridine-3-carboxylic acid amide] |
| 194% | 272 nM | CCSc1nc(N(C)C2CCOC2)cc(C)c1C(=O)NCCCC(C)(C)C (stereo not drawn) [Example 218, N-(4,4-Dimethyl-pentyl)-2-ethylsulfanyl-4-methyl-6-(methyl-tetrahydro-furan-3-yl-amino)-pyridine-3-carboxylic acid amide] |
| 212% | 91 nM | CCSc1nc(N2CCOC(C)C2)cc(C)c1C(=O)NCCCC(C)(C)C (stereo not drawn) [Example 219, N-(4,4-Dimethyl-pentyl)-2-ethylsulfanyl-4-methyl-6-(2-methyl-morpholin-4-yl)-pyridine-3-carboxylic acid amide] |
| 166% | 682 nM | Cc1cc(N2CCOCC2)nc(C(C)(C)C)c1C(=O)NCCCC(C)(C)C [Example 220, 2-tert-Butyl-N-(4,4-dimethyl-pentyl)-4-methyl-6-morpholin-4-yl-pyridine-3-carboxylic acid amide] |
| 259% | 22 nM | CCC(C)c1nc(N2CCOCC2)cc(C)c1C(=O)NCCCC(C)(C)C (stereo not drawn) [Example 221, N-(4,4-Dimethyl-pentyl)-4-methyl-2-(1-methyl-propyl)-6-morpholin-4-yl-pyridine-3-carboxylic acid amide] |
| 56% | 7310 nM | CCSc1nc(N2CCC3(COC3)C2)cc(C)c1C(=O)NCc1cccc(F)c1 [Example 222, 2-Ethylsulfanyl-N-[(3-fluorophenyl)-methyl]-4-methyl-6-(2-oxa-6-azaspiro[3.4]octan-6-yl)-pyridine-3-carboxylic acid amide] |
| 137% | 3660 nM | CCSc1nc(N2CCO[C@@H](COC)C2)cc(C)c1C(=O)NCc1cccc(F)c1 [Example 223, 2-Ethylsulfanyl-N-[(3-fluorophenyl)-methyl]-6-[(2R)-2-(methoxymethyl)-morpholin-4-yl]-4-methyl-pyridine-3-carboxylic acid amide] |
| 136% | 693 nM | CCSc1nc(N2CCO[C@H](COC)C2)cc(C)c1C(=O)NCc1cccc(F)c1 [Example 224, 2-Ethylsulfanyl-N-[(3-fluorophenyl)-methyl]-6-[(2S)-2-(methoxymethyl)-morpholin-4-yl]-4-methyl-pyridine-3-carboxylic acid amide] |
| 173% | 71 nM | CCSc1nc(N2CCOC[C@H]2C)cc(C)c1C(=O)NCc1ccc(F)c(F)c1 [Example 225, N-[(3,4-Difluoro-phenyl)-methyl]-2-ethylsulfanyl-4-methyl-6-[(3R)-3-methyl-morpholin-4-yl]-pyridine-3-carboxylic acid amide] |
| 186% | 129 nM | COc1nc(N2CCOC[C@H]2C)cc(C)c1C(=O)NCc1ccc(F)c(F)c1 [Example 226, N-[(3,4-Difluoro-phenyl)-methyl]-2-methoxy-4-methyl-6-[(3R)-3-methyl-morpholin-4-yl]-pyridine-3-carboxylic acid amide] |
| 165% | 4190 nM | CCSc1nc(N2CCOCC2)cc(C)c1C(=O)NCCC(O)c1ccccc1 (stereo not drawn) [Example 227, 2-Ethylsulfanyl-N-(3-hydroxy-3-phenyl-propyl)-4-methyl-6-morpholin-4-yl-pyridine-3-carboxylic acid amide] |
| 180% | 2450 nM | CCSc1nc(N2CCOCC2)cc(C)c1C(=O)NCC(O)CC(C)C (stereo not drawn) [Example 228, 2-Ethylsulfanyl-N-(2-hydroxy-4-methyl-pentyl)-4-methyl-6-morpholin-4-yl-pyridine-3-carboxylic acid amide] |
| 132% | 719 nM | CCSc1nc(N2CCOC(CCOC)C2)cc(C)c1C(=O)NCc1cccc(F)c1 (stereo not drawn) [Example 229, 2-Ethylsulfanyl-N-[(3-fluorophenyl)-methyl]-6-[2-(2-methoxy-ethyl)-morpholin-4-yl]-4-methyl-pyridine-3-carboxylic acid amide] |
| 131% | 12900 nM | CCSc1nc(N2CCOCC2)cc(C)c1C(=O)NCCCC(C)(C)CO [Example 230, 2-Ethylsulfanyl-N-(5-hydroxy-4,4-dimethyl-pentyl)-4-methyl-6-morpholin-4-yl-pyridine-3-carboxylic acid amide] |
| 61% | 10400 nM | CCSc1nc(N2CCOCC2)cc(C)c1C(=O)NCc1cccc(S(C)(=O)=O)c1 [Example 231, 2-Ethylsulfanyl-4-methyl-N-[(3-methylsulfonyl-phenyl)-methyl]-6-morpholin-4-yl-pyridine-3-carboxylic acid amide] |

Source: patent US9168259B2 (GRÜNENTHAL GMBH, priority 2010, dated 2015)
